Assay [1] addresses T1, Histamine Receptor H3 (Homo sapiens, UniProt Q9Y5N1). The assay is described as follows: Methyl histamine binding in human histamine H3 receptor cell line. Also noted: expressed in transfected cells; host or cells: HEK293T. To be noted: membranes of stably transfected HEK293T cells, radioligand 1 nM, Ki from IC50 by Cheng-Prusoff. As to the method: Evaluation of Methyl Histamine Binding in Human Histamine H3 Receptor Cell Line
The affinity of test compounds for the histamine 3 (H3) receptor is evaluated in the following manner. […] Cells are scraped from the plate, transferred to centrifuge tubes, washed one time in PBS by centrifugation in a Sorvall RT7 Plus centrifuge (2000 rpm 10 minutes, 4° C.). The resulting pellets are stored at −80° C. until ready for use. Cells are re-suspended in buffer (50 mM Tris pH=7.5) and placed in a Dounce homogenizer, douncing ten times to homogenize cells. The homogenate is spun down by centrifugation (Sorvall RT7 Plus, 1800 rpm 10 minutes, 4° C.). The supernatant is placed in a Corex tube and spun down by centrifugation (Sorvall RC 5c Plus, 17,000 rpm 20 minutes, 4° C.). The pellet is resuspended in buffer (50 mM Tris, pH 7.5). Protein concentration (ug/ul) is determined using the Micro-BCA Protein Determination. The binding assay is set up in a 96 well microtiter plate in a total volume of 250 uL. Non-specific binding is determined in the presence of 10 uM clobenpropit. The final radioligand concentration is 1 nM. The test compound is serially diluted using the Beckman Biomek2000 to a final approximate range of 100 uM to 100 pM. Membranes are suspended in buffer, homogenized in 2 bursts of ten seconds using a Vitris mechanical homogenizer set at power setting 5. Ten μg of membranes are added to each well. Following a one hour incubation at 30° C., the reaction is terminated by the addition of ice cold buffer and rapid filtration with a Packard Filtermate Harvester through a GF/B filter pre-soaked with 1% PEI for one hour. The plate is dried for one hour at 37° C. and 60 μL Microscint Scintillant is added to each well. The CPM per well is measured on a Packard Top Count NXT. Ki values are determined in nM. […] CPM values are expressed as % specific binding and plotted vs compound concentration. A curve is fitted using a four-parameter logistic fit and the IC50 value is determined. The Ki is calculated from this using the Cheng-Prusoff equation: […]=IC50/1+(L/Kd) where L=concentration of free radioligand used in the assay, and Kd is the dissociation constant of the radioligand for the receptor. L is determined for each experiment by counting an aliquot of the diluted radioligand (corresponding to that added to each well) and the Kd has previously been determined under identical conditions for this cell line/radioligand.

In assay [2] the target is T1, Histamine Receptor H3. The assay is described as follows: Cyclic AMP assay for histamine receptor H3 antagonism activity. Also noted: expressed in transfected cells. Type of assay: cell-based. To be noted: stable H3 cells, histamine plus 10 μM forskolin, 30 min at 30° C., HitHunter cAMP kit. As to the method: Cyclic Amp Assay for Histamine Receptor H3 Antagonism Activity.
Stable H3 cells are maintained in tissue culture flask in DMEM with high glucose, 10% FBS, 1× pen/strep, 500 ug/ml GY18, until experiment. Culture media is removed and cells are washed twice with PBS w/Ca+2 and Mg+2 plus 500 μM IBMX. Cells are then detached by tapping on the side of the flask and resuspend in the same buffer. Two thousand cells/well are incubated with 1 μM histamine plus 10 μM forskolin plus various concentrations of compounds in a total volume of 30 μL in 96 well plates for 30 min at 30° C. Final test compound concentrations range from 10^-4 M to 10-9.5 M at full log dilutions. Cyclic AMP levels are measured using HitHunter cAMP kit from Discoverx, cat#900041 according to manufacturer's instruction. Chemiluminescence signals are detected using Top Count (Packard). Cyclic AMP levels in control cells receiving 10 μM forskolin plus 100 nM histamine are considered 0%, and in cells receiving 10 uM forskolin plus 100 nM histamine plus 1 μM clobenpropit are considered 100%. Data are expressed as % control and analyzed using Prizm software. The Kb values are calculated using the following equation, KB=EC50 or IC50/[1+(ligand/Kd)].

Each structure is given as a SMILES string. Where only a bound is given, the exact number is not on record here.

T1 sequence (Q9Y5N1 whole entry): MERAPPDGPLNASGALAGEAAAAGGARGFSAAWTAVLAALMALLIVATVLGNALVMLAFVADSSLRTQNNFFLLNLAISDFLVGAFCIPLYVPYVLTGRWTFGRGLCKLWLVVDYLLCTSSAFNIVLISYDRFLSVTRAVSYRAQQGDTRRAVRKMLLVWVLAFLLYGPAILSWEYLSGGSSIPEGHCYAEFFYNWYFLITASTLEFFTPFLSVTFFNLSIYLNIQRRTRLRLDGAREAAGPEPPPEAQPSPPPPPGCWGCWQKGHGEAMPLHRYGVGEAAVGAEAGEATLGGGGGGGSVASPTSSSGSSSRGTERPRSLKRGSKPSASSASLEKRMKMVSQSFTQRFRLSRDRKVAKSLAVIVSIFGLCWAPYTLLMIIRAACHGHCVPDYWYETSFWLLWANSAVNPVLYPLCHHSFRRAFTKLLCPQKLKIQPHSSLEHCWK

In turn, `C[C@H]1CCCN1[C@H]1CCN(C(=O)c2ccc(-n3cnc4ccccc43)cc2)C1` [Example 7, (2S,3′S)-1′-[4-(1H-benzimidazol-1-yl)benzoyl]-2-methyl-1,3′-bipyrrolidine] came in with a Ki on Histamine Receptor H3 [1] of less than 10 nM. Further, the Kb at Histamine Receptor H3 [2] was less than 10 nM.
Take `O=C(c1ccc(-n2cnc3ccccc32)cc1)N1CC[C@H](N2CCCCCC2)C1` [Example 11, 1-(4-{[(3S)-3-azepan-1-ylpyrrolidin-1-yl]carbonyl}phenyl)-1H-benzimidazole]: the Ki at Histamine Receptor H3 [1] was less than 10 nM. The Kb at Histamine Receptor H3 [2] was less than 10 nM.
For the compound `Cc1nc2ccccc2n1-c1ccc(C(=O)N2CC[C@H](N3CCC[C@H]3C)C2)cc1` [Example 21, (2R,3′S)-2-methyl-1′-[4-(2-methyl-1H-benzimidazol-1-yl)benzoyl]-1,3′-bipyrrolidine], the Ki on Histamine Receptor H3 [1] is less than 10 nM. Also, on Histamine Receptor H3 [2], the Kb was less than 10 nM.
`Cc1nc2ccccc2n1-c1ccc(C(=O)N2CC[C@H](N3CCC[C@@H]3C)C2)cc1` [Example 22, (2S,3′S)-2-methyl-1′-[4-(2-methyl-1H-benzimidazol-1-yl)benzoyl]-1,3′-bipyrrolidine]: the Ki at Histamine Receptor H3 [1] is less than 10 nM. Further, the Kb on Histamine Receptor H3 [2] is less than 10 nM.
Consider `Cc1nc2ccccc2n1-c1ccc(C(=O)N2CC[C@H](N3CCCC(C)C3)C2)cc1` (stereo partly drawn) [Example 24, 2-methyl-1-(4-{[(3S)-3-(3-methylpiperidin-1-yl)pyrrolidin-1-yl]carbonyl}phenyl)-1H-benzimidazole], for which the Ki at Histamine Receptor H3 [1] was less than 10 nM. At Histamine Receptor H3 [2], the Kb was less than 10 nM.
`Cc1nc2ccccc2n1-c1ccc(C(=O)N2CC[C@H](N3CCCCC3)C2)cc1` [Example 28, 2-methyl-1-(4-{[(3S)-3-piperidin-1-ylpyrrolidin-1-yl]carbonyl}phenyl)-1H-benzimidazole]: at Histamine Receptor H3 [1], the Ki is less than 10 nM. Moreover, the Kb at Histamine Receptor H3 [2] was less than 10 nM.
Turning to `O=C(c1ccc(-n2ccc3c(F)cccc32)cc1)N1CC[C@H](N2CCCC2)C1` [Example 31, (3′S)-1′-[4-(4-fluoro-1H-indol-1-yl)benzoyl]-1,3′-bipyrrolidine], the Ki on Histamine Receptor H3 [1] is less than 10 nM. On Histamine Receptor H3 [2], the Kb is less than 10 nM.
Compound `COc1ccc2c(ccn2-c2ccc(C(=O)N3CC[C@H](N4CCCC4)C3)cc2)c1` [Example 33, (3′S)-1′-[4-(5-methoxy-1H-indol-1-yl)benzoyl]-1,3′-bipyrrolidine] displayed a Ki on Histamine Receptor H3 [1] of less than 10 nM. Moreover, the Kb on Histamine Receptor H3 [2] was less than 10 nM.
On to `N#Cc1ccc2c(ccn2-c2ccc(C(=O)N3CC[C@H](N4CCCC4)C3)cc2)c1` [Example 36, 1-{4-[(3′S)-1,3′-bipyrrolidin-1′-ylcarbonyl]phenyl}-1H-indole-5-carbonitrile], for which, at Histamine Receptor H3 [1], the Ki was less than 10 nM. Also, the Kb at Histamine Receptor H3 [2] was less than 10 nM.
The compound `O=C(c1ccc(-n2ccc3cc(F)ccc32)cc1)N1CC[C@H](N2CCCC2)C1` [Example 37, (3′S)-1′-[4-(5-fluoro-1H-indol-1-yl)benzoyl]-1,3′-bipyrrolidine] showed a Ki at Histamine Receptor H3 [1] of less than 10 nM. For the same compound, the Kb at Histamine Receptor H3 [2] is less than 10 nM.
Regarding `O=C(c1ccc(-n2ccc3cccc(F)c32)cc1)N1CC[C@H](N2CCCC2)C1` [Example 39, (3′S)-1′-[4-(7-fluoro-1H-indol-1-yl)benzoyl]-1,3′-bipyrrolidine], at Histamine Receptor H3 [1], the Ki is less than 10 nM. For the same compound, the Kb at Histamine Receptor H3 [2] was less than 10 nM.
